# Results reported in paper PMC1129089, “Identification and characterization of a novel mammalian Mg^2+ transporter with channel-like properties” (BMC Genomics, 2005).
# Experiments:
# hMagT1 (human MagT1) [1] = target: T1, hMagT1 (human MagT1) (Homo sapiens, UniProt Q9H0U3); assay: two-microelectrode voltage clamp, Xenopus oocytes, Mg2+-evoked current; assay type: cell-based; conditions: 10 μM compound, -125 mV, n = 5; activator; control current 0.59 ± 0.09 μA
# T1 construct: full-length ORF, 335 residues, 38,036 Da; subcloned in pEYFP-N1, cRNA injected in Xenopus laevis oocytes; no fusion tag stated
# T1 sequence (Q9H0U3 30-335): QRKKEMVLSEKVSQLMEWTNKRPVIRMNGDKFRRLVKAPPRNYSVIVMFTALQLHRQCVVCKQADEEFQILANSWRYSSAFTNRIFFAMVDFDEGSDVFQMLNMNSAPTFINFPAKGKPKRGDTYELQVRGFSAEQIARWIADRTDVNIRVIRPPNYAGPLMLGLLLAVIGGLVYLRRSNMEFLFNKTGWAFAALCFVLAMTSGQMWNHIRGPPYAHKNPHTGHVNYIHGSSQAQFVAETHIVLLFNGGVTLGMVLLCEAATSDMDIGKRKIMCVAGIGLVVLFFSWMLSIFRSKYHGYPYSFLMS
# hMagT1 (human MagT1) [2] = target: T1, hMagT1 (human MagT1); assay: as above; assay type: cell-based; conditions: 10 μM compound, -125 mV, n = 7; inhibitor; control current 0.59 ± 0.09 μA
current at 10 μM (hMagT1 (human MagT1) [1]) [μA],residual current at 10 μM (hMagT1 (human MagT1) [2]) [μA],Compound
0.80 ± 0.18,,COC(=O)C1=C(C)NC(C)=C([N+](=O)[O-])C1c1ccccc1C(F)(F)F (centres unmarked) [BAY K8644]
,0.15 ± 0.02,CCOC(=O)C1=C(C)NC(C)=C(C(=O)OC)C1c1cccc([N+](=O)[O-])c1 (centres unmarked) [nitrendipine]
